These results are taken from patent publication US20240174634A1, “Aldehyde Dehydrogenase Inhibitors and Their Therapeutic Use” (priority 2020, published 2024).

pIC50: −log10 of the molar value.

In the experiment the target is T1, ALDH1A3 (Homo sapiens, UniProt P47895).
T1 sequence (P47895 1-512): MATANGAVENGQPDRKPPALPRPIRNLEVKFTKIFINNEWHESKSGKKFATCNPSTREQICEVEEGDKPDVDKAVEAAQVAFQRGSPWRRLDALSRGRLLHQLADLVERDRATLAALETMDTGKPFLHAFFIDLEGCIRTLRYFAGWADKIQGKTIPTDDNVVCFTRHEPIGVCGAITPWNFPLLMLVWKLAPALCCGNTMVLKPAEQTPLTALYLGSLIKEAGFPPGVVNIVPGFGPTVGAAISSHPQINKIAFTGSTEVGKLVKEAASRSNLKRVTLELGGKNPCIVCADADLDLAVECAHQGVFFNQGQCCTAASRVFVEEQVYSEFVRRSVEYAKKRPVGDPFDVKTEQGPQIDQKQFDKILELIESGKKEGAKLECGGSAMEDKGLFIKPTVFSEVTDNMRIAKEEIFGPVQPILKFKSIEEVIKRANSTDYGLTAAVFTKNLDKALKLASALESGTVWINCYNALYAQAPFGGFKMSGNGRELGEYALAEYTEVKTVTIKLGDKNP
Briefly: ALDH1A3 cellular assay (ALDEFLUOR) in WM266.4 melanoma cells. It is filed as cell-based. To be noted: WM266.4 cells; 60 min incubation; percentage of ALDH-positive cells. An excerpt:
Materials: WM266.4 cells were procured from ATCC. (WM266-4 is a metastatic human melanoma cell line.) The ALDEFLUOR™ Assay kit (cat. no. 01700) and Aldefluor buffer (cat. no. 01702) were procured from StemCell Technologies. Dulbecco's Modified Eagle Medium (DMEM), FluoroBrite DMEM, Glutamax and Hoechst 33342 were purchased from ThermoFisher. Verapamil was obtained from Fluorochem. FBS was obtained from Sigma. Echo Qualified 384-well low-dead-volume microplate and Echo Qualified 384-well polypropylene microplate were purchased from Labcyte, and the Microclear black sterile polystyrene microplate from Greiner Bio-One.
Method: Intracellular inhibition of ALDH1A3 was assessed using the ALDEFLUOR™ Assay kit. The activated ALDEFLUOR™ reagent, BODIPY-aminoacetaldehyde (BAAA), is a fluorescent non-toxic substrate for ALDH enzymes, which freely diffuses into intact and viable cells. In the presence of ALDH enzyme activity, BAAA is converted into BODIPY-aminoacetate (BAA), which is retained inside the cells. The amount of fluorescent reaction product is proportional to the ALDH activity in the cells and is measured using an imaging cytometer. Active efflux of the reaction product is inhibited by an efflux inhibitor (Verapamil) in the ALDEFLUOR™ Assay Buffer.
A frozen vial of cells was recovered into a T225 flask containing DMEM, high glucose, 10% FBS, 1% glutamax, 1% HEPES. The following day, media was changed and cells were ready for assay from 72 hours after recovery. Cells were transferred into FluoroBrite DMEM (plus 10% FBS, 1% glutamax and 1% HEPES) and diluted to 2.5×10^5 cells/mL. 30 μL of cells were added to each well to give 7500 cells/well and then incubated overnight at 37° C., 5% CO2. After overnight incubation, the media was aspirated and replaced by 20 μL substrate/Hoechst buffer solution. Each plate requires 9 mL of solution comprising, 9 mL ALDEFLUOR assay buffer, 18 μL BAAA substrate (final concentration 500 nM), 4.5 μL Hoechst 33342 (final concentration 5 μg/mL) and 4.5 μL Verapamil (final concentration 50 μM). Compounds were prepared for dosing using the Echo acoustic dispenser by aliquoting into a source plate and dosed directly onto the cell assay plate to give a 10 point dose response per compound ranging from 10 μM to 0.0005 μM final concentration in 3-fold dilution steps. Plates were then incubated for 60 minutes at 37° C., 5% CO2. The buffer was then aspirated and cells washed twice in ice-cold PBS. Plates were kept on ice and 30 μL of cold Aldefluor buffer with 50 μM verapamil dispensed per well. The plates were then imaged using the CellInsight fluorescent microscope. Hoechst fluorescence in the 405 nm channel indicated the nuclear area and this was used to define nuclei and then the surrounding cellular area. Fluorescence in the 488 nm channel of the defined cellular area indicates ALDH1A3 activity. The percentage of cells positive for ALDH activity was plotted versus compound concentration to generate EC50 values using curve fitting parameters defined in Dotmatics software.
What is called pIC50 is the negative decadic logarithm of the IC50, by convention in mol/L. Lower therefore signals a high IC50. The molecule `Cc1noc(-c2ccccc2C(=O)Nc2ccc3c(c2)CCC(=O)N3)n1` [ALDHI-1008, 2-(3-methyl-1,2,4-oxadiazol-5-yl)-N-(2-oxo-1,2,3,4-tetrahydroquinolin-6-yl)benzamide] showed a pIC50 of 6.00 to 7.00.

`CN(C)c1nc(-c2cccc(F)c2)c(C(=O)Nc2ccc3c(c2)CCC(=O)N3)s1` [ALDHI-1002, 2-(dimethylamino)-4-(3-fluorophenyl)-N-(2-oxo-3,4-dihydro-1H-quinolin-6-yl)thiazole-5-carboxamide] had a negative-log IC50 (pIC50) of more than 7.00.

The molecule `O=C1CCCc2cc(OCCN3CCCC3c3cccc(F)c3)ccc2N1` (stereo not drawn) [ALDHI-2020, 7-[2-[2-(3-fluorophenyl)pyrrolidin-1-yl]ethoxy]-1,3,4,5-tetrahydro-1-benzazepin-2-one] had a pIC50 of 6.00 to 7.00.

The molecule `O=C1COc2cc(NC(=O)c3scnc3-c3cccc(F)c3)ccc2N1` [ALDHI-1016, 4-(3-fluorophenyl)-N-(3-oxo-4H-1,4-benzoxazin-7-yl)thiazole-5-carboxamide] had a pIC50 of more than 7.00.

Molecule `O=C1CCc2cc(NC(=O)c3scnc3-c3cccs3)ccc2N1` [ALDHI-1023, N-(2-oxo-3,4-dihydro-1H-quinolin-6-yl)-4-(2-thienyl)thiazole-5-carboxamide] had a negative logarithm of the IC50 (pIC50) of more than 7.00.

`O=C1CCc2cc(NC(=O)c3sc(N4CCOCC4)nc3-c3cccc(F)c3)ccc2N1` [ALDHI-1001, 4-(3-fluorophenyl)-2-morpholino-N-(2-oxo-3,4-dihydro-1H-quinolin-6-yl)thiazole-5-carboxamide] gave a negative-log IC50 (pIC50) of more than 7.00.

For `O=C1CCc2cc(OCCN3CC(F)CC3c3cccc(F)c3)ccc2N1` (stereo not drawn) [ALDHI-2052, 6-[2-[4-fluoro-2-(3-fluorophenyl)pyrrolidin-1-yl]ethoxy]-3,4-dihydro-1H-quinolin-2-one], the negative-log IC50 (pIC50) was more than 7.00.

Regarding `Cn1cc(C2CCCN2CCOc2ccc3c(c2)SCC(=O)N3)cn1` (stereo not drawn) [ALDHI-2026, 7-[2-[2-(1-methylpyrazol-4-yl)pyrrolidin-1-yl]ethoxy]-4H-1,4-benzothiazin-3-one], the negative-log IC50 (pIC50) was 5.00 to 6.00.

In the case of `O=C1CCc2cc(NC(=O)c3sc(N4CCNCC4)nc3-c3cccc(F)c3)ccc2N1` [ALDHI-1005, 4-(3-fluorophenyl)-N-(2-oxo-3,4-dihydro-1H-quinolin-6-yl)-2-piperazin-1-yl-thiazole-5-carboxamide], the negative logarithm of the IC50 (pIC50) was more than 7.00.

`O=C1CCc2cc(OCCN3CCC3c3cccc(F)c3)ccc2N1` (stereo not drawn) [ALDHI-2021, 6-[2-[2-(3-fluorophenyl)azetidin-1-yl]ethoxy]-3,4-dihydro-1H-quinolin-2-one] had a negative logarithm of the IC50 (pIC50) of 5.00 to 6.00.

`O=C1CCc2cc(NC(=O)c3scnc3-c3cccc(F)c3)ccc2N1` [ALDHI-1003, 4-(3-fluorophenyl)-N-(2-oxo-3,4-dihydro-1H-quinolin-6-yl)thiazole-5-carboxamide] showed a pIC50 of more than 7.00.

Molecule `Cc1ccccc1C1CCCN1CCOc1ccc2c(c1)CCC(=O)N2` (stereo not drawn) [ALDHI-2012, 6-[2-[2-(o-tolyl)pyrrolidin-1-yl]ethoxy]-3,4-dihydro-1H-quinolin-2-one] had a pIC50 of 5.00 to 6.00.

On to `O=C1CCc2cc(OCCN3CCCC3c3ccccn3)ccc2N1` (stereo not drawn) [ALDHI-2006, 6-[2-[2-(2-pyridyl)pyrrolidin-1-yl]ethoxy]-3,4-dihydro-1H-quinolin-2-one], for which the negative-log IC50 (pIC50) is 5.00 to 6.00.

`O=C1CCc2cc(OCCN3CC(F)(F)CC3c3cccc(F)c3)ccc2N1` (stereo not drawn) [ALDHI-2053, 6-[2-[4,4-difluoro-2-(3-fluorophenyl)pyrrolidin-1-yl]ethoxy]-3,4-dihydro-1H-quinolin-2-one] gave a negative logarithm of the IC50 (pIC50) of more than 7.00.

The molecule `O=C1CCc2cc(OCCN3CCCC3c3ccc(F)cc3)ccc2N1` (stereo not drawn) [ALDHI-2003, 6-[2-[2-(4-fluorophenyl)pyrrolidin-1-yl]ethoxy]-3,4-dihydro-1H-quinolin-2-one] had a pIC50 of 5.00 to 6.00.

`Cc1cccc(C2CCCN2CCOc2ccc3c(c2)CCC(=O)N3)c1` (stereo not drawn) [ALDHI-2011, 6-[2-[2-(m-tolyl)pyrrolidin-1-yl]ethoxy]-3,4-dihydro-1H-quinolin-2-one] gave a negative logarithm of the IC50 (pIC50) of 5.00 to 6.00.

In the case of `O=C1CCc2cc(OCCN3CCCC3c3cccc(F)c3)ccc2N1` (stereo not drawn) [ALDHI-2001, 6-[2-[2-(3-fluorophenyl)pyrrolidin-1-yl]ethoxy]-3,4-dihydro-1H-quinolin-2-one], the pIC50 was more than 7.00.

Take `CCC1Oc2cc(OCCN3CCCC3c3cccc(F)c3)ccc2NC1=O` (stereo not drawn) [ALDHI-2045, 2-ethyl-7-[2-[2-(3-fluorophenyl)pyrrolidin-1-yl]ethoxy]-4H-1,4-benzoxazin-3-one]: the pIC50 is more than 7.00.

As for `O=c1ccc2cc(OCCN3CCCC3c3cccc(F)c3)ccc2[nH]1` (stereo not drawn) [ALDHI-2022, 6-[2-[2-(3-fluorophenyl)pyrrolidin-1-yl]ethoxy]-1H-quinolin-2-one], the pIC50 was 6.00 to 7.00.

Take `O=C1CCc2cc(NC(=O)c3cncnc3-c3cccc(F)c3)ccc2N1` [ALDHI-1018, 4-(3-fluorophenyl)-N-(2-oxo-3,4-dihydro-1H-quinolin-6-yl)pyrimidine-5-carboxamide]: the pIC50 is 6.00 to 7.00.

In the case of `CN(CCOc1ccc2c(c1)CCC(=O)N2)Cc1cccnc1` [ALDHI-3010, 6-[2-[methyl(3-pyridylmethyl)amino]ethoxy]-3,4-dihydro-1H-quinolin-2-one], the pIC50 is 6.00 to 7.00.

In turn, `C[C@H](c1ccccc1)N(CCO)CCOc1ccc2c(c1)CCC(=O)N2` [ALDHI-3006, 6-[2-[2-hydroxyethyl-[(1R)-1-phenylethyl]amino]ethoxy]-3,4-dihydro-1H-quinolin-2-one] gave a negative logarithm of the IC50 (pIC50) of 6.00 to 7.00.

Regarding `O=C1CCc2cc(NC(=O)c3scnc3-c3ccccc3F)ccc2N1` [ALDHI-1021, 4-(2-fluorophenyl)-N-(2-oxo-3,4-dihydro-1H-quinolin-6-yl)thiazole-5-carboxamide], the pIC50 is more than 7.00.

`O=C1CCc2cc(OCCN3CCCC3c3ccc(F)c(F)c3)ccc2N1` (stereo not drawn) [ALDHI-2039, 6-[2-[2-(3,4-difluorophenyl)pyrrolidin-1-yl]ethoxy]-3,4-dihydro-1H-quinolin-2-one] gave a pIC50 of 6.00 to 7.00.

For the molecule `Cc1ccc(C2CCCN2CCOc2ccc3c(c2)CCC(=O)N3)cn1` (stereo not drawn) [ALDHI-2030, 6-[2-[2-(6-methyl-3-pyridyl)pyrrolidin-1-yl]ethoxy]-3,4-dihydro-1H-quinolin-2-one], the pIC50 was 6.00 to 7.00.

For the molecule `CC1Cc2cc(OCCN3CCCC3c3cccc(F)c3)ccc2NC1=O` (stereo not drawn) [ALDHI-2048, 6-[2-[2-(3-fluorophenyl)pyrrolidin-1-yl]ethoxy]-3-methyl-3,4-dihydro-1H-quinolin-2-one], the negative-log IC50 (pIC50) was more than 7.00.

`CN(CCOc1ccc2c(c1)CCC(=O)N2)C(=O)c1cccc(F)c1` [ALDHI-3008, 3-fluoro-N-methyl-N-[2-[(2-oxo-3,4-dihydro-1H-quinolin-6-yl)oxy]ethyl]benzamide]: the negative-log IC50 (pIC50) was 6.00 to 7.00.

`O=C1CCc2cc(OCCN(CCO)Cc3cccnc3)ccc2N1` [ALDHI-3005, 6-[2-[2-hydroxyethyl(3-pyridylmethyl)amino]ethoxy]-3,4-dihydro-1H-quinolin-2-one]: the pIC50 was 6.00 to 7.00.

As to `CN(CCOc1ccc2c(c1)CCC(=O)N2)C(=O)c1cccnc1` [ALDHI-3013, N-methyl-N-[2-[(2-oxo-3,4-dihydro-1H-quinolin-6-yl)oxy]ethyl]pyridine-3-carboxamide], the negative-log IC50 (pIC50) is 5.00 to 6.00.

Consider `C[C@@H](c1ccccc1)N(CCO)CCOc1ccc2c(c1)CCC(=O)N2` [ALDHI-3007, 6-[2-[2-hydroxyethyl-[(1S)-1-phenylethyl]amino]ethoxy]-3,4-dihydro-1H-quinolin-2-one], for which the negative logarithm of the IC50 (pIC50) was 6.00 to 7.00.
